From paper doi:10.1101/2025.07.03.662948v1 (biorxiv, 2025) come the findings set out here.

The target in data set [1] is T1, MtbCBS (Mycobacterium tuberculosis cystathionine β-synthase) (Mycobacterium tuberculosis, UniProt P9WP51).
T1 sequence (P9WP51 1-464): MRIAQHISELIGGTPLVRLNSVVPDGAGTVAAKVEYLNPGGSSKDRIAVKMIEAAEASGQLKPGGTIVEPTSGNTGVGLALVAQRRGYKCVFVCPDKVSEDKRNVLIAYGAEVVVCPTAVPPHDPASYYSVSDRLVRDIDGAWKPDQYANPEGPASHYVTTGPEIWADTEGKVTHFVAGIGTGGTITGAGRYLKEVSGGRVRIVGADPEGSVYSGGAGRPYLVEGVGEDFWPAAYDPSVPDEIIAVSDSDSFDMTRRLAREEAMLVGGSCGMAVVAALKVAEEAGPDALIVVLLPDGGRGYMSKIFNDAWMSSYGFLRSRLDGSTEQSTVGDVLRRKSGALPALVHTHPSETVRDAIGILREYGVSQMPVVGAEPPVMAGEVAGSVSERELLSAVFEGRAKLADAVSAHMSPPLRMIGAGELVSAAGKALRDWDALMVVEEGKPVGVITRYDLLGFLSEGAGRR
The data set is described as follows: fluorescence of PLP aldimine. The format is biochemical.

Substrate in the data set “purified protein”: N[C@@H](CS)C(=O)O
The data set can be described thus: purified protein. The settings on record: pH 7.5; 25.0 °C.

`NOCC(=O)O` [AOAA]: the IC50 (in general, the concentration that inhibits the measured activity by half) in data set [1] was around 100 µM.

B1: MtbCBS (Mycobacterium tuberculosis cystathionine β-synthase) (Mycobacterium tuberculosis H37Rv) (protein)
chain: T1 sequence (P9WP51 1-464)
Consider B1, for which the Km – broadly, the concentration of substrate that gives half-maximal velocity – in the data set “purified protein” was determined as 15.47 mM.
